Test results published in PubChem BioAssay (NCI).
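Cultured in 96-well plates, cells were exposed to test compound for 48 hours across five concentrations. Definition used: TGI = concentration required for complete inhibition of growth.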

Key:
Assay in all cases: NCI anticancer screen, dose series, 48 h
[1] = tested on: ACHN renal
[2] = tested on: CAKI-1 renal
[3] = tested on: DU-145 prostate
[4] = tested on: HCC-2998 colon
[5] = tested on: LOX IMVI melanoma
[6] = tested on: MDA-MB-231 breast
[7] = tested on: MOLT-4 leukemia
[8] = tested on: NCI-H460 lung
[9] = tested on: NCI/ADR-RES ovarian
[10] = tested on: SF-268 CNS
[11] = tested on: SK-MEL-28 melanoma
[12] = tested on: SK-MEL-5 melanoma
[13] = tested on: SK-OV-3 ovarian
[14] = tested on: SNB-19 CNS
[15] = tested on: TK-10 renal
[16] = tested on: U251 CNS
[17] = tested on: UACC-62 melanoma
[18] = tested on: HOP-92 NSCLC
[19] = tested on: OVCAR-3 ovarian

SMILES: O=C(CC(C(=O)c1cccs1)c1cccs1)c1ccsc1 (configuration not stated)
- TGI [1]: > 100 µM
- TGI [2]: > 100 µM
- TGI [3]: > 100 µM
- TGI [4]: > 100 µM
- TGI [5]: > 100 µM
- TGI [6]: > 100 µM
- TGI [7]: > 100 µM
- TGI [8]: > 100 µM
- TGI [9]: > 100 µM
- TGI [10]: > 100 µM
- TGI [11]: > 100 µM
- TGI [12]: > 100 µM
- TGI [13]: > 100 µM
- TGI [14]: > 100 µM
- TGI [15]: > 100 µM
- TGI [16]: > 100 µM
- TGI [17]: > 100 µM

SMILES: Nc1nc(N)c2cc(-c3ccccc3)cnc2n1
- TGI [1]: 26.3 µM
- TGI [2]: 29.5 µM
- TGI [4]: > 100 µM
- TGI [18]: 30.1 µM
- TGI [5]: 37.6 µM
- TGI [6]: 20.4 µM
- TGI [7]: 28.3 µM
- TGI [8]: 24.3 µM
- TGI [9]: > 100 µM
- TGI [19]: 35.8 µM
- TGI [10]: 8.78 µM
- TGI [11]: 35 µM
- TGI [12]: 27.3 µM
- TGI [13]: > 100 µM
- TGI [14]: 38.3 µM
- TGI [15]: 29.9 µM
- TGI [16]: 42 µM

SMILES: NC(=O)c1cc2ccc(O)cc2o/c1=N/NC(=O)c1ccccc1
- TGI [1]: > 100 µM
- TGI [2]: > 100 µM
- TGI [4]: > 100 µM
- TGI [18]: > 100 µM
- TGI [5]: > 100 µM
- TGI [6]: > 100 µM
- TGI [7]: > 100 µM
- TGI [8]: > 100 µM
- TGI [9]: > 100 µM
- TGI [19]: > 100 µM
- TGI [10]: > 100 µM
- TGI [11]: > 100 µM
- TGI [12]: > 100 µM
- TGI [13]: > 100 µM
- TGI [14]: > 100 µM
- TGI [15]: > 100 µM
- TGI [16]: > 100 µM
- TGI [17]: > 100 µM

SMILES: Nc1nc2c(c(=O)[nH]1)C(c1ccccc1)CC(=O)N2 (configuration not stated)
- TGI [1]: > 100 µM
- TGI [3]: > 100 µM
- TGI [4]: > 100 µM
- TGI [5]: > 100 µM
- TGI [6]: > 100 µM
- TGI [7]: > 100 µM
- TGI [8]: > 100 µM
- TGI [9]: > 100 µM
- TGI [19]: > 100 µM
- TGI [10]: > 100 µM
- TGI [11]: > 100 µM
- TGI [12]: > 100 µM
- TGI [13]: > 100 µM
- TGI [14]: > 100 µM
- TGI [15]: > 100 µM
- TGI [16]: > 100 µM
- TGI [17]: > 100 µM

SMILES: CC(=O)O/C=C1/C[C@H]2[C@@H]3CCC4CC(C(C)=O)CC[C@]4(C)[C@H]3CC[C@]2(C)C1=O (some centres not stated)
- TGI [1]: > 100 µM
- TGI [2]: > 100 µM
- TGI [3]: > 100 µM
- TGI [4]: > 100 µM
- TGI [18]: > 100 µM
- TGI [5]: > 100 µM
- TGI [6]: > 100 µM
- TGI [7]: > 100 µM
- TGI [8]: > 100 µM
- TGI [19]: 97.3 µM
- TGI [10]: > 100 µM
- TGI [11]: > 100 µM
- TGI [12]: > 100 µM
- TGI [13]: > 100 µM
- TGI [14]: > 100 µM
- TGI [15]: > 100 µM
- TGI [16]: > 100 µM
- TGI [17]: > 100 µM

SMILES: Cc1n[nH]c(=O)n1/N=C/c1ccc(F)cc1
- TGI [1]: > 100 µM
- TGI [2]: > 100 µM
- TGI [3]: > 100 µM
- TGI [4]: > 100 µM
- TGI [18]: > 100 µM
- TGI [7]: > 100 µM
- TGI [8]: > 100 µM
- TGI [9]: > 100 µM
- TGI [19]: > 100 µM
- TGI [10]: > 100 µM
- TGI [11]: > 100 µM
- TGI [13]: > 100 µM
- TGI [14]: > 100 µM
- TGI [17]: > 100 µM

SMILES: CC(=O)[C@@H]1C/C(=C\OCc2ccccc2)O[C@H]1C
- TGI [1]: > 100 µM
- TGI [2]: > 100 µM
- TGI [3]: > 100 µM
- TGI [18]: > 100 µM
- TGI [5]: > 100 µM
- TGI [6]: > 100 µM
- TGI [7]: > 100 µM
- TGI [8]: > 100 µM
- TGI [9]: > 100 µM
- TGI [19]: > 100 µM
- TGI [10]: > 100 µM
- TGI [11]: > 100 µM
- TGI [12]: > 100 µM
- TGI [13]: > 100 µM
- TGI [14]: > 100 µM
- TGI [15]: > 100 µM
- TGI [16]: > 100 µM

SMILES: Cc1ccc(/C(O)=C/c2nc3c(nc2NC24CC5CC(CC(C5)C2)C4)c(=O)oc2ccccc23)cc1
- TGI [1]: > 100 µM
- TGI [2]: > 100 µM
- TGI [4]: > 100 µM
- TGI [18]: > 100 µM
- TGI [5]: > 100 µM
- TGI [7]: > 100 µM
- TGI [8]: > 100 µM
- TGI [19]: > 100 µM
- TGI [10]: > 100 µM
- TGI [11]: > 100 µM
- TGI [12]: > 100 µM
- TGI [13]: > 100 µM
- TGI [14]: > 100 µM
- TGI [15]: > 100 µM
- TGI [16]: > 100 µM
- TGI [17]: > 100 µM

SMILES: N#Cc1c(=O)c2ccccc2n2c1[nH]c1ccccc12
- TGI [1]: > 100 µM
- TGI [2]: > 100 µM
- TGI [3]: > 100 µM
- TGI [4]: > 100 µM
- TGI [5]: > 100 µM
- TGI [6]: > 100 µM
- TGI [7]: > 100 µM
- TGI [8]: > 100 µM
- TGI [9]: 70.4 µM
- TGI [19]: > 100 µM
- TGI [10]: > 100 µM
- TGI [11]: > 100 µM
- TGI [14]: > 100 µM
- TGI [15]: > 100 µM
- TGI [16]: > 100 µM
- TGI [17]: > 100 µM

SMILES: C/C(=N\n1c(Cc2ccccc2)n[nH]c1=O)c1ccccc1
- TGI [1]: > 100 µM
- TGI [2]: > 100 µM
- TGI [3]: > 100 µM
- TGI [18]: > 100 µM
- TGI [5]: > 100 µM
- TGI [6]: > 100 µM
- TGI [7]: > 100 µM
- TGI [9]: > 100 µM
- TGI [10]: > 100 µM
- TGI [11]: > 100 µM
- TGI [12]: > 100 µM
- TGI [14]: > 100 µM
- TGI [15]: > 100 µM
- TGI [16]: > 100 µM
- TGI [17]: > 100 µM

SMILES: COc1cccc(/C=C2\CCCc3ccccc3C2=O)c1
- TGI [1]: > 100 µM
- TGI [2]: > 100 µM
- TGI [3]: 60 µM
- TGI [18]: 43.2 µM
- TGI [5]: 38.9 µM
- TGI [6]: 32.5 µM
- TGI [7]: > 100 µM
- TGI [8]: 34.2 µM
- TGI [9]: 53.3 µM
- TGI [19]: 34 µM
- TGI [10]: 23 µM
- TGI [11]: 41.1 µM
- TGI [13]: 79.3 µM
- TGI [14]: 26.8 µM
- TGI [15]: 82.6 µM
- TGI [16]: 29.3 µM
- TGI [17]: 25.8 µM

SMILES: CC(NO)/C(=N/O)c1ccco1 (configuration not stated)
- TGI [1]: > 10 µM
- TGI [2]: > 10 µM
- TGI [3]: > 10 µM
- TGI [4]: > 10 µM
- TGI [18]: > 10 µM
- TGI [6]: > 10 µM
- TGI [7]: > 10 µM
- TGI [8]: > 10 µM
- TGI [9]: > 10 µM
- TGI [19]: > 10 µM
- TGI [10]: > 10 µM
- TGI [14]: > 10 µM
- TGI [15]: > 10 µM
- TGI [16]: > 10 µM

SMILES: COc1cccc2c1CCc1c(-c3ccc(F)cc3)cc(-c3ccc4ccccc4n3)nc1-2
- TGI [1]: > 100 µM
- TGI [2]: > 100 µM
- TGI [18]: > 100 µM
- TGI [5]: > 100 µM
- TGI [6]: > 100 µM
- TGI [7]: > 100 µM
- TGI [8]: > 100 µM
- TGI [9]: > 100 µM
- TGI [19]: > 100 µM
- TGI [10]: > 100 µM
- TGI [12]: > 100 µM
- TGI [13]: > 100 µM
- TGI [14]: > 100 µM
- TGI [15]: > 100 µM
- TGI [16]: > 100 µM
- TGI [17]: > 100 µM

SMILES: COc1cccc(C2c3cc4c(cc3OC(N3CCOCC3)C2C)OCO4)c1OC (configuration not stated)
- TGI [1]: 70.9 µM
- TGI [2]: 5.36 µM
- TGI [3]: 28.5 µM
- TGI [4]: 22.8 µM
- TGI [5]: 12.6 µM
- TGI [7]: 20 µM
- TGI [8]: 30.7 µM
- TGI [9]: 29.7 µM
- TGI [19]: 36.7 µM
- TGI [10]: 92.2 µM
- TGI [11]: 32 µM
- TGI [12]: 24.5 µM
- TGI [14]: 24.2 µM
- TGI [15]: > 100 µM
- TGI [17]: 85.5 µM
